The text below walks through data of patent US5079247A, “N^1 -substituted benz(cd)indol-2-imine compounds as cardiovascular agents” (American Cyanamid Company, priority 1990, dated 1992).

For test [1], the system named is KCl-induced cardiac arrhythmias, fibrillation and cardiac death in mice. Kind of test: Antiarrhythmic/antifibrillatory activity in anesthetized mice, potassium chloride challenge. The class given is in vivo, mice of the Swiss Webster Strain. Conditions: Mus musculus, iv, 0.25 h, potassium chloride 62.5 mg/kg i.v.; for responders at 10 mg/kg: Dose = 10 mg/kg I.V., 15 minutes observation, read-out: KCl Mice Surviving / Mice Tested (converted). From the text: (§1) Intravenous administration of high doses of calcium or potassium chloride in animals produces cardiac arrhythmias, cardiac fibrillation and cardiac arrest. Any agent that can prevent these events is considered an antiarrhythmic/antifibrillatory agent. (Meth. and Find Exptl. Clin Pharmacal.2:223-252(1980); Pharmacol Ther. 24:401-433 (1984); Experimental Cardiac and Antiarrhythmic Drugs, L. Szekeres and Gy. J. Dapp, Akademiai Kiado Preso, Budapest, 9-448 (1971)).
(§2) The method employed is as follows: Male mice of the Swiss Webster Strain (Charles River, Wilmington, MA) weighing 25-35 g were anesthetized with ethyl carbamate (urethan) (1.5g/kg body weight i.p.). A 25-gauge needle attached to PE-20 tubing was inserted into a caudal vein for drug administration. The lead II ECG was recorded by needle electrodes placed subcutaneously in the limbs. All data were collected on a Gould Brush recorder. Animals were observed 5 minutes before drug administration. A 5, 15 or 30 minute period following drug administration was allowed before the bolus injection of calcium chloride, 200 mg/ kg i.v. or potassium chloride, 62.5 mg/kg i.v. Control mice received 4 ml/kg of 0.9% sodium chloride i.v. Mice were observed an additional 15 minutes for arrhythmias,fibrillation, survival or death. Any compound at a dose of less than 20 mg/kg i.v. in either test that protects from cardiac death 3 or more mice out of 6 mice, is considered active.

Test [2] concerns spontaneously hypertensive rats of the Okamoto strain. Kind of test: Hypotensive activity in spontaneously hypertensive rats (method of Chan and Poorvin). Conditions: by gavage, 100 mg/kg or less, two doses 24 hours apart; MABP at 28 hours after initial dose; average baseline MABP 160±1.5 mm of mercury. The class given is in vivo, rat. On the procedure: The novel compounds of the present invention are active hypotensive agents and were tested for hypotensive activity by the method of P. S. Chan and D. Poorvin, Clinical and Experimental Hypertension, 1 (6), 817-830 (1979). Male, 16 week old, spontaneously hypertensive rats of the Okamoto strain, from Taconic Farms, Germantown, New York, having an average mean arterial blood pressure of 160±1.5 mm of mercury, were used in the test. One to 3 rats were used per test compound. […] A second identical dose of the test compound, without sodium chloride loading was given 24 hours later. At 28 hours after the initial dose the mean arterial blood pressure (MABP) was measured. The procedure was repeated in a second and third rat when necessary.

Test [3] deals with CaCl2-induced cardiac arrhythmias, fibrillation and cardiac death in mice. Kind of test: Antiarrhythmic/antifibrillatory activity in anesthetized mice, calcium chloride challenge. Conditions: Mus musculus, iv, 0.25 h, calcium chloride 200 mg/kg i.v., read-out: CaCl2 Mice Surviving / Mice Tested (converted); for responders at 10 mg/kg: Dose = 10 mg/kg I.V., 15 minutes observation. The class given is in vivo, mice of the Swiss Webster Strain.
Description: as §1, §2

Test [4] concerns the target T1, thromboxane synthetase enzyme (Rattus norvegicus, UniProt P49430).
T1 construct: The platelets were isolated by centrifuging the PRP for 10 minutes; from tissue; host or cells: washed platelets from arterial blood of Okamoto-Aoki spontaneously hypertensive rats (animals from Taconic Farms)
T1 sequence (P49430 1-533): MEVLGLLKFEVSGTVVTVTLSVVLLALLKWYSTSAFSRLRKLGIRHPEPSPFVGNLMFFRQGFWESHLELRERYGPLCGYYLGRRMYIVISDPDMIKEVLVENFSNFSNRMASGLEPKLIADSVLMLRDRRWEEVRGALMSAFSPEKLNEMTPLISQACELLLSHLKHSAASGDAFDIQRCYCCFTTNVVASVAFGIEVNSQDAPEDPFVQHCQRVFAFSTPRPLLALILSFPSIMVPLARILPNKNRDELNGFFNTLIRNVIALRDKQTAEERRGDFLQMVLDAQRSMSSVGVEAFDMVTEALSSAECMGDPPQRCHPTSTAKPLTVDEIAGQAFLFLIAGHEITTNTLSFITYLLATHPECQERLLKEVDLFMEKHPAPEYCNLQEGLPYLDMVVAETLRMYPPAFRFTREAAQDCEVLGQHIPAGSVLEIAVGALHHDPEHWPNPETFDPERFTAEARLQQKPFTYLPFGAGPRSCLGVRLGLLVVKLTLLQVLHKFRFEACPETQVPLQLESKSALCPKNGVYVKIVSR
The test is described as follows: Thromboxane synthetase enzyme inhibition (TXB2 formation in platelet suspension, RIA). The class given is cell-based, Okamoto-Aoki spontaneously hypertensive rats (SHR). The note with it: concentration 1 × 10^-4 M; SHR platelet suspension, 10 minutes at 37° C. On the procedure:
Under urethan anethesia, […] of arterial blood from Okamoto-Aoki spontaneously hypertensive rats (SHR) (Taconic Farms, Germantown, New York) between 19 and 24 weeks in age was collected in 1 ml of 3.2% sodium citrate in a polystyrene tube. The blood was diluted with 3 ml of cold saline and centrifuged at room temperature for 15 minutes at 460Xg. The platelet rich plasma (PRP) was separated. The platelets were isolated by centrifuging the PRP for 10 minutes at 1060Xg and were washed in 4 ml of cold oxygenated Krebs phosphate buffer, pH 7.4. The chilled platelets, recovered from centrifuging at 800Xg for 10 minutes, were resuspended in oxygenated Krebs phosphate buffer and diluted to contain 4.5-6.0×10^4 platelets/μl. The inhibition of thromboxane (TX) formation was studied by determining the concentration of thromboxane B2 (TXB2), the stable hydrolysis product of TXA2. Assay samples, prepared on ice, contained 200 μl platelet suspension, 50 μl saline, and 50 μl vehicle or drug under study at a concentration of 1×10^-4 M. The samples were incubated for 10 minutes at 37° C. in metabolic shaker. The reaction was terminated by immersing the tubes in an ice bath and adding 50 μl of 0.5M citric acid. The samples were centrifuged for 10 minutes in a refrigerated centrifuge and the supernatants thus obtained were decanted and stored at -20° C. The TXB2 content for each sample was determined by a direct radioimmunoassay (RIA) utilizing a TXB2 specific RIA kit purchased from New England Nuclear, Boston, Massachusetts and expressed as pg TXB2 formed minute^-1 sample^-1, from which the percent inhibition of TXB2 formation was calculated.

Molecules are shown by their SMILES. Where a name gives a salt, the structure may show the parent alone.

Regarding `COc1cccc(CN2C(=NCCCn3ccnc3)c3cccc4cccc2c34)c1` [Example 14, N-[1-[(3Methoxyphenyl)methyl]benz[cd]indol-2(1H)-ylidene]-1H-imidazole-1-propanamine], the responders at 10 mg/kg in test [1] is 66.7%; in test [3], 16.7%. Also, the “Avg. MABP in mm Hg (No. of Rats)” value in test [2] was found to be 104 mm Hg. `c1ccc(CN2C(=NCCCn3ccnc3)c3cccc4cccc2c34)cc1` [Example 6, N-[1-(Phenylmethyl)benz[cd]indol-2(1H)-ylidene]-1H-imidazole-1-propanamine,(E)-2-butenedioate (1:2)]: in test [4], the inhibition at 100 µM came to 90%. In the case of `CCN(CC)CC(=O)Nc1c(C)cccc1C` [Lidocaine, reference compound], the responders at 10 mg/kg was 50% in test [1] and 83.3% in test [3]. With `CCN(CC)CCN1C(=NCc2cccnc2)c2cccc3cccc1c23` [Example 25, N,N-Diethyl-2-[(3-pyridinylmethyl)imino]benz[cd]indol-1(2H)ethanamine, (E)-2-butenedioate (2:3)], the results for the responders at 10 mg/kg in test [1] and in test [3] were 50% and 16.7%, respectively. Besides, the inhibition at 100 µM in test [4] turned out to be 91%. The matching figures for `N#CCCCCN1C(=NCCCn2ccnc2)c2cccc3cccc1c23` [Example 15, 2-[[3-(1H-Imidazol-1 yl)propyl]imino]benz[cd]indole-1(2H)-pentanenitrile]: 50%, 16.7% and 94%. With `c1cc2c3c(cccc3c1)N(CCCN1C(=NCCCn3ccnc3)c3cccc4cccc1c34)C2=NCCCn1ccnc1` [Example 20, N,N'-[1,3-Propanediylbis(benz[cd]indol-1(2H)-ylidene)]bis-1H-imidazole-1-propanamine], the responders at 10 mg/kg is 0% in test [1] and 66.7% in test [3].

For `c1ccc(CN2C(=NCCCCc3cccnc3)c3cccc4cccc2c34)cc1` [Example 29, N-[1-(Phenylmethyl)benz[cd]indol-2(1H)-ylidene]-3-pyridinebutanamine, (E)-2 butenedioate (1:2)], the responders at 10 mg/kg in test [1] is 66.7%; in test [3] it was 33.3%. Consider `CCN(CC)CCN1C(=NCCCn2ccnc2)c2cccc3cccc1c23` [Example 17, N,N-Diethyl-2-[[3-(1H-imidazol-1-yl)propyl]imino]benz[cd]indole-1(2H)-ethanamine, (E)-2butenedioate (1:3)], for which the responders at 10 mg/kg in test [1] was 66.7%; in test [3] it was 16.7%. The corresponding values for `CN1C(=NCCCn2ccnc2)c2cccc3cccc1c23` [Example 18, N-[1-Methylbenz[cd]indol-2(1H)-ylidene]-1H-imidazole-1-propanamine, (E)-2-butenedioate (1:2)] are 66.7% and 0%.

On to `c1ccc(C(c2ccccc2)N2C(=NCCCn3ccnc3)c3cccc4cccc2c34)cc1` [Example 7, N-[1 (Diphenylmethyl)benz[cd]indol-2(1H)-ylidene]-1H-imidazole-1 propanamine], for which the responders at 10 mg/kg in test [1] is 83.3%; in test [3], 16.7%. In test [4], the inhibition at 100 µM was 75%. `CCN(CC)CCNC(=O)c1ccc(N)cc1` [Procainamide, reference compound]: the responders at 5 mg/kg in test [1] (5 mg/kg i.v., read-out: KCl Mice Surviving / Mice Tested) was 70%. Turning to `c1cncc(CCCCN=C2c3cccc4cccc(c34)N2Cc2cccnc2)c1` [Example 31, N-[1-(3-Pyridinylmethyl)benz[cd]indol 2(1H)-ylidene]-3-pyridinebutanamine, dihydrochloride], the “Avg. MABP in mm Hg (No. of Rats)” value in test [2] is reported as 119 mm Hg. For the same compound, 100 µM produced 96% inhibition in test [4]. `CCCCCCN1C(=NCCCn2ccnc2)c2cccc3cccc1c23` [Example 16, N-(1-Hexylbenz[cd]indol-2(1H)-ylidene)-1H-imidazole 1-propanamine, (E)-2-butenedioate (1:2)]: in test [4], the inhibition at 100 µM came out at 94%.

For the compound `c1ccc(C(c2ccccc2)N2C(=NCCCCc3cccnc3)c3cccc4cccc2c34)cc1` [Example 30], the responders at 10 mg/kg was 83.3% in test [1] and 16.7% in test [3]. Consider `CCCCCCN1C(=NCCCCc2cccnc2)c2cccc3cccc1c23` [Example 33, N-(1-Hexylbenz[cd]indol-2(1H)-ylidene)-3-pyridinebutanamine, (E)-2-butenedioate (2:3)], for which at 100 µM the inhibition in test [4] was 93%. The same measure, in the same setting: with `c1ccc(CCCN2C(=NCCCn3ccnc3)c3cccc4cccc2c34)cc1` [Example 13, N-[1-(3-Phenylpropyl)benz[cd]indol-2(1H)-ylidene]-1H-imidazole-1-propanamine, (E)-2-butenedioate (1:2)] the figure was 92%. As to `CN1C(=NCCCn2ccnc2)c2cccc3c(CO)ccc1c23` [Example 21, 1,2-Dihydro-2-[[3-(1H-imidazol-1-yl)propyl]imino]-1-methylbenz[cd]indole-6-methanol, (E)-2-butanedioate (1:1)], the responders at 10 mg/kg in test [1] is 83.3%; in test [3], 43.8%. With `CN1C(=NCCCCn2ccnc2)c2cccc3cccc1c23` [Example 22, N-(1-Methylbenz[cd]indol-2(1H)-ylidene)-1H-imidazole-1-butanamine], the “Avg. MABP in mm Hg (No. of Rats)” value in test [2] came out at 112 mm Hg.

For the compound `C=C[C@H]1C[N@@]2CC[C@H]1C[C@@H]2[C@@H](O)c1ccnc2ccc(OC)cc12` [Quinidine, reference compound], the responders at 15 mg/kg in test [1] (15 mg/kg i.v., read-out: KCl Mice Surviving / Mice Tested) was 30%; in test [3] (15 mg/kg i.v.), 75%. Take `c1ccc(CN2C(=NCCCn3ccnc3)c3cccc4cccc2c34)cc1` [Example 5, N-[1-(Phenylmethyl)benz[cd]indol-2 (1H)-ylidene]-1H-imidazole-1-propanamine]: the responders at 10 mg/kg in test [1] and in test [3] was 83.3% throughout.

Usually inhibition stands for the percentage by which the read-out fell short of the control.
